This note sets out measurements from patent publication US5563155A, “Individual stereosiomers of 7-[3-(aminoalkyl)-1-pyrrolidinyl]-quinolones and naphthyridones as antibacterial agents” (Warner-Lambert Company, priority 1995, dated 1996).

Assay type in all cases: cell-based
In experiment [1] the test system is Ent. cloacae MA2646. Nature of the experiment: in vitro antibacterial activity, microtitration dilution (MIC), Ent. cloacae MA2646. The settings on record: Enterobacter cloacae, read-out: minimum inhibiting concentration (MIC). The source says:
(§1) The in vitro antibacterial activity, is obtained by the microtitration dilution method as described in Heifetz, et al., Antimicr. Agents & Chemother., 6, 124 (1974), which is incorporated herein by reference.
(§2) By use of the above methods, the following minimum inhibiting concentration values (MICs in μg/mL), PD50 's in mg/kg, no effect phototoxicity dose in mg/kg and the cytotoxicity IC50 in μg/mL were obtained for representative enantiomers of the invention and compounds of the prior art as shown in the table.

Experiment [2] has as its system Esch. coli Vogel. The experiment in a line: in vitro antibacterial activity, microtitration dilution (MIC), Esch. coli Vogel. Conditions: Escherichia coli, read-out: minimum inhibiting concentration (MIC).
Text: as §1, §2

The subject of experiment [3] is Klebs. pneumoniae MGH-2. Nature of the experiment: in vitro antibacterial activity, microtitration dilution (MIC), Klebs. pneumoniae MGH-2. The settings on record: Klebsiella pneumoniae, MGH2, read-out: minimum inhibiting concentration (MIC).
Text: as §1, §2

Experiment [4] relates to Prot. rettgeri M 1771. Nature of the experiment: in vitro antibacterial activity, microtitration dilution (MIC), Prot. rettgeri M 1771. Conditions: Providencia rettgeri, M1771, read-out: minimum inhibiting concentration (MIC).
Text: as §1, §2

Experiment [5] concerns Pseud. aeruginosa UI-18. The experiment in a line: in vitro antibacterial activity, microtitration dilution (MIC), Pseud. aeruginosa UI-18. Conditions: Pseudomonas aeruginosa, UI18, read-out: minimum inhibiting concentration (MIC).
Text: as §1, §2

The test system of experiment [6] is Staph. aureus H 228. Nature of the experiment: in vitro antibacterial activity, microtitration dilution (MIC), Staph. aureus H 228. The settings on record: Staphylococcus aureus, H228, read-out: minimum inhibiting concentration (MIC).
Text: as §1, §2

The test system of experiment [7] is Staph. aureus UC-76. Nature of the experiment: in vitro antibacterial activity, microtitration dilution (MIC), Staph. aureus UC-76. The settings on record: Staphylococcus aureus, UC76, read-out: minimum inhibiting concentration (MIC).
Text: as §1, §2

Experiment [8] relates to Strep. faecalis MGH-2. Nature of the experiment: in vitro antibacterial activity, microtitration dilution (MIC), Strep. faecalis MGH-2. Conditions: Enterococcus faecalis, MGH2, read-out: minimum inhibiting concentration (MIC).
Text: as §1, §2

Experiment [9] has as its system Strep. pheumoniae SV-1. Nature of the experiment: in vitro antibacterial activity, microtitration dilution (MIC), Strep. pneumoniae SV-1. Conditions: Streptococcus pneumoniae, SV1, read-out: minimum inhibiting concentration (MIC).
Text: as §1, §2

Experiment [10] deals with Strep. pyogenes C-203. Nature of the experiment: in vitro antibacterial activity, microtitration dilution (MIC), Strep. pyogenes C-203. Conditions: Streptococcus pyogenes, C203, read-out: minimum inhibiting concentration (MIC).
Text: as §1, §2

In brackets after ≈: the same amount, converted by molar mass.

In the case of `CCN[C@@H](C)[C@@H]1CCN(c2cc3c(c(N)c2F)c(=O)c(C(=O)O)cn3C2CC2)C1` [Example 55, 3R,1S-5-amino-7-[3-(1-N-ethylaminoethyl)-1-pyrrolidinyl]-1-cyclopropyl-6-fluoro-1,4-dihydro-4-oxo-3-quinolinecarboxylic acid], the MIC stood at 0.1 µg/mL (≈ 0.248 µM) in experiment [1]; 0.1 µg/mL (≈ 0.248 µM) in experiment [2]; 0.2 µg/mL (≈ 0.497 µM) in [3]; 0.8 µg/mL (≈ 1.99 µM) in experiment [4]; 1.6 µg/mL (≈ 3.98 µM) in experiment [5]; 0.05 µg/mL (≈ 0.124 µM) in [6]. Besides, the MIC amounted to 0.025 µg/mL (≈ 0.0621 µM) in [7], 0.05 µg/mL (≈ 0.124 µM) in experiment [8], 0.013 µg/mL (≈ 0.0323 µM) in [9] and 0.013 µg/mL (≈ 0.0323 µM) in experiment [10].

`C[C@H](N)[C@@H]1CCN(c2c(F)c(N)c3c(=O)c(C(=O)O)cn(C4CC4)c3c2F)C1` [Example 58, 3R,1S-5-amino-7-[3-(1-aminoethyl)-1-pyrrolidinyl]-1-cyclopropyl-6,8-difluoro-1,4-dihydro-4-oxo-3-quinolinecarboxylic acid]: the MIC amounted to 0.013 µg/mL (≈ 0.0331 µM) in experiment [1]; 0.013 µg/mL (≈ 0.0331 µM) in [2]; 0.013 µg/mL (≈ 0.0331 µM) in [3]; 0.025 µg/mL (≈ 0.0637 µM) in experiment [4]; 0.4 µg/mL (≈ 1.02 µM) in [5]; 0.003 µg/mL (≈ 0.00765 µM) in [6]. Moreover, the MIC in [7], in [8], in experiment [9] and in experiment [10] was 0.003 µg/mL (≈ 0.00765 µM) each time.

As to `Cc1c(F)c(N2CC[C@@H]([C@@H](C)N)C2)cc2c1c(=O)c(C(=O)O)cn2-c1ccc(F)cc1F` [Example 46, 3R,1R-7-[3-(1-aminoethyl)-1-pyrrolidinyl]-1-(2,4-difluorophenyl)-6-fluoro-1,4-dihydro-5-methyl-4-oxo-3-quinolinecarboxylic acid], the MIC turned out to be 0.2 µg/mL (≈ 0.449 µM) in [1]; 0.2 µg/mL (≈ 0.449 µM) in experiment [2]; 0.4 µg/mL (≈ 0.898 µM) in [3]; 0.4 µg/mL (≈ 0.898 µM) in [4]; 1.6 µg/mL (≈ 3.59 µM) in experiment [5]; 0.025 µg/mL (≈ 0.0561 µM) in experiment [6]. Moreover, the MIC in experiment [7] turned out to be 0.013 µg/mL (≈ 0.0292 µM); in experiment [8], 0.1 µg/mL (≈ 0.224 µM); in experiment [9] it was 0.013 µg/mL (≈ 0.0292 µM); in [10], 0.013 µg/mL (≈ 0.0292 µM).

Consider `CN[C@H](C)[C@H]1CCN(c2nc3c(cc2F)c(=O)c(C(=O)O)cn3C2CC2)C1` [Example 23, 3S,1R-1-cyclopropyl-6-fluoro-7-[3-(1-N-methylaminoethyl)-1-pyrrolidinyl]-1,4-dihydro-4-oxo-1,8-naphthyridine-3-carboxylic acid], for which the MIC came out at 0.1 µg/mL (≈ 0.267 µM) in experiment [1]; 0.1 µg/mL (≈ 0.267 µM) in experiment [2]; 0.2 µg/mL (≈ 0.534 µM) in [3]; 0.8 µg/mL (≈ 2.14 µM) in experiment [4]; 1.6 µg/mL (≈ 4.27 µM) in [5]; 0.2 µg/mL (≈ 0.534 µM) in experiment [6]. Moreover, the MIC in experiment [7] was found to be 0.05 µg/mL (≈ 0.134 µM); in experiment [8], 0.2 µg/mL (≈ 0.534 µM); in experiment [9] it was 0.1 µg/mL (≈ 0.267 µM); in experiment [10] it was 0.1 µg/mL (≈ 0.267 µM).

For the molecule `C[C@H]([C@H]1CCN(c2nc3c(cc2F)c(=O)c(C(=O)O)cn3C2CC2)C1)N(C)C` [Example 69, 3S,1R-1-cyclopropyl-7-[3-[1-(dimethylamino)ethyl]-1-pyrrolidinyl]-6-fluoro-1,4-dihydro-4-oxo-1,8-naphthyridine-3-carboxylic acid], the MIC in [1] was determined as 0.1 µg/mL (≈ 0.257 µM); in experiment [2], 0.1 µg/mL (≈ 0.257 µM); in [3], 0.2 µg/mL (≈ 0.515 µM); in experiment [4], 0.4 µg/mL (≈ 1.03 µM); in experiment [5], 1.6 µg/mL (≈ 4.12 µM); in [6], 0.05 µg/mL (≈ 0.129 µM). In addition, the MIC in experiment [7] turned out to be 0.006 µg/mL (≈ 0.0154 µM); in experiment [8], 0.025 µg/mL (≈ 0.0644 µM); in [9], 0.013 µg/mL (≈ 0.0335 µM); in experiment [10], 0.025 µg/mL (≈ 0.0644 µM).

Take `CCN[C@@H](C)[C@H]1CCN(c2c(F)cc3c(=O)c(C(=O)O)cn(C4CC4)c3c2OC)C1` [Example 20, 3S,1S-1-cyclopropyl-6-fluoro-7-[3-(1-N-ethylaminoethyl)1-pyrrolidinyl]-8-methoxy-1,4-dihydro-4-oxo-3quinolinecarboxylic acid]: the MIC in [1] came to 0.8 µg/mL (≈ 1.92 µM); in experiment [2] it was 0.8 µg/mL (≈ 1.92 µM); in experiment [3], 1.6 µg/mL (≈ 3.83 µM); in [4] it was 3.1 µg/mL (≈ 7.43 µM); in [5], 6.3 µg/mL (≈ 15.1 µM); in [6], 0.2 µg/mL (≈ 0.479 µM). Also, the MIC in experiment [7] was determined as 0.05 µg/mL (≈ 0.12 µM); in [8], 0.4 µg/mL (≈ 0.958 µM); in [9], 0.2 µg/mL (≈ 0.479 µM); in experiment [10] it was 0.2 µg/mL (≈ 0.479 µM).
